Test system: blood GIP level
Assay: GIP elevation inhibitory activity of D-mannitol (single dietary test)
Assay type: in vivo, mice (C57BL/6J)
Protocol: Powdery feeds were prepared by using D-mannitol (manufactured by Kao Corp.) in accordance with the compositions listed in the following table and used as test samples. [table] Powdery feeds (Table 1) were weighed so as to have the same calories in each group and freely fed for 30 minutes to mice (C57BL/6J, CLEA Japan, Inc, male, 10-weeks old, n=10) fasted for 18 hours or more. During this free feeding, 200 mg of the feed was given to the high fat diet (HF) group; whereas, 216 mg of the feed to the D-mannitol group. Note that the calorie of D-mannitol was calculated as 0. Before feeding, and 30, 60 and 120 minutes after feeding a powdery-feed test sample, the mice were anesthetized with isoflurane, blood was sampled from the orbit (heparinized hematocrit micro blood collection tube, manufactured by VITREX) and the blood GIP level was measured. The amount of GIP was measured in accordance with ELISA method (Rat/Mouse GIP (total) ELISA (Millipore)). Each value was shown by mean±standard deviation. Statistically significant difference between the groups was obtained by applying Student's t-test to the HF group (*: p<0.05).

With `OC[C@@H](O)[C@@H](O)[C@H](O)[C@H](O)CO` [D-mannitol] the “inhibitory activity against GIP elevation” value (conclusion of single dietary test in mice) was “has an inhibitory activity against GIP elevation”, the “blood GIP concentration value at 30 minutes after intake of the sample” value (mice C57BL/6J male, fasted 18 hours or more, 216 mg high fat powdery feed containing D-mannitol, compared to HF group, Student's t-test p<0.05, FIG. 1A) was “significantly low” and the “area under the curve of GIP concentration up to 120 minutes after intake of the sample” value (mice C57BL/6J male, fasted 18 hours or more, 216 mg high fat powdery feed containing D-mannitol, compared to control (HF) group, p<0.05, FIG. 1B) was “significantly low”.
